Experimental data taken from article PMC3408606 (Thrombosis and haemostasis, 2011).
Where two headings read alike, the source gives them in different places.

Legend:
triplatin [1] = molecular target: T1, triplatin (Triatoma infestans, UniProt Q18NS7)
triplatin [2] = molecular target: T1, triplatin; test: biochemical
ApoD = test: Isothermal titration calorimetry of ligand binding to ApoD; conditions: ITC, ApoD expressed in HEK293 cells
platelets = test: Platelet aggregation; type: cell-based, human; conditions: for Effect on ADP-induced platelet aggregation: indometacin 50 μM

T1 sequence (Q18NS7 19-182 limits assumed): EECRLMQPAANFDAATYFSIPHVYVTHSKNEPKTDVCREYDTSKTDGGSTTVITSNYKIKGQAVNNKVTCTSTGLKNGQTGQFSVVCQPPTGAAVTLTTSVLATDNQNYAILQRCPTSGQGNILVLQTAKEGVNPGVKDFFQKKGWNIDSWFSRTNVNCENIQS

CCCCC/C=C\C/C=C\C[C@H](O)/C=C/C=C\CCCC(=O)O [9s-HETE]
Kd (triplatin [1]): > 1000 nM

CCCCC/C=C\C[C@H](O)/C=C/C=C\C/C=C\CCCC(=O)O [12(S)-HETE]
Binding to triplatin (triplatin [1]; ITC, Figure 3 or not shown): not observed

CCCCC[C@H](O)/C=C/C=C\C/C=C\C/C=C\CCCC(=O)O [15s-HETE]
Kd (triplatin [2]): > 1000 nM

O=C(O)CCC/C=C\C/C=C\C/C=C\C/C=C\CCCCCO [20-HETE]
Binding to triplatin (triplatin [1]; ITC, Figure 3 or not shown): not observed

Nc1ncnc2c1ncn2[C@@H]1O[C@H](COP(=O)(O)OP(=O)(O)O)[C@@H](O)[C@H]1O [ADP, adenosine diphosphate]
Binding to triplatin (triplatin [1]; ITC, Figure 3 or not shown): not observed

CCCCC/C=C\C/C=C\C/C=C\C/C=C\CCCC(=O)O [Arachidonic acid, arachidonic acid]
Binding to ApoD (ApoD): failed to detect binding
Binding to triplatin (triplatin [1]; ITC, Figure 3 or not shown): not observed

NCCc1c[nH]cn1 [Histamine, histamine]
Binding to triplatin (triplatin [1]; ITC, Figure 3 or not shown): not observed

CCCCC/C=C\C\C=C/C=C/C=C/[C@@H](SC[C@H](NC(=O)CC[C@H](N)C(=O)O)C(=O)NCC(=O)O)[C@@H](O)CCCC(=O)O [LTC4]
Binding to triplatin (triplatin [1]): not observed

CCCCC[C@H](O)/C=C/[C@H]1[C@H](O)CC(=O)[C@@H]1CCCCCCC(=O)O [PGE1]
Binding to triplatin (triplatin [1]): not observed

CCCCC[C@H](O)/C=C/[C@@H]1[C@@H](C/C=C\CCCC(=O)O)[C@@H](O)C[C@H]1O [PGF2α]
Binding to ApoD (ApoD): failed to detect binding
ΔG (triplatin [1]; calculated free energy, ITC 30°C, n.d. = no binding detected): -9.25 kcal/mol
Kd (triplatin [2]): 215 ± 10 nM

CCCCC[C@H](O)/C=C/[C@H]1C(=O)C=C[C@@H]1C/C=C\CCCC(=O)O [PGJ2]
Kd (triplatin [1]): 111 ± 3.4 nM
TΔS (triplatin [1]): -1.49 kcal/mol
ΔG (triplatin [1]): -9.65 kcal/mol
ΔH (triplatin [1]): -11.14 ± 0.38 kcal/mol

O=C(O)CCC/C=C\C[C@@H]1[C@H](CNNC(=O)Nc2ccccc2)[C@H]2CC[C@@H]1O2 [SQ29548]
Inhibition of collagen-induced platelet aggregation (platelets): partial inhibition

CCCCC[C@H](O)/C=C/[C@H]1OC(O)C[C@H](O)[C@@H]1C/C=C\CCCC(=O)O (stereo partly shown) [TXB2]
Kd (triplatin [1]): 355 ± 6.7 nM
TΔS (triplatin [1]): -2.58 kcal/mol
ΔG (triplatin [1]): -8.95 kcal/mol
ΔH (triplatin [1]): -11.53 ± 0.92 kcal/mol

CCCCC[C@H](O)/C=C/[C@@H]1[C@@H](C/C=C\CCCC(=O)O)[C@H]2CO[C@@H]1C2 [U46619]
Kd (triplatin [1]): 294 ± 51 nM
TΔS (triplatin [1]): -2.46 kcal/mol
ΔG (triplatin [1]): -9.06 kcal/mol
ΔH (triplatin [1]): -11.52 ± 0.38 kcal/mol

CCCCC[C@H](O)/C=C/[C@H]1CC2CC(C2)[C@@H]1C/C=C\CCCC(=O)O [cTXA2]
Binding to ApoD (ApoD): failed to detect binding
Kd (triplatin [1]): 369 ± 103 nM
TΔS (triplatin [1]): -3.90 kcal/mol
ΔG (triplatin [1]): -8.93 kcal/mol
ΔH (triplatin [1]): -12.83 ± 0.73 kcal/mol

COc1ccc2c(c1)c(CC(=O)O)c(C)n2C(=O)c1ccc(Cl)cc1 [indometacin]
Effect on ADP-induced platelet aggregation (platelets; ADP 1 μM (low dose)): not affected
Effect on ADP-induced platelet aggregation (platelets; ADP 10 μM): attenuated
Inhibition of collagen-induced platelet aggregation (platelets; collagen 6.6 μg/ml, inhibitor alone: indometacin 50 μM, SQ29548 0.2 μM, triplatin 1 μM): partial inhibition
